How the values were obtained:
Experiment in all cases: relative viability (nuclei count vs DMSO), 5 days (fraction); higher = more cells survive
[1] = system: HCC-15
Outline: (§1)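 Lung cancer cell lines were pin-tool dosed in 1536-well plates on the day after seeding, with either a lone drug or a fixed anchor-drug dose plus five library-drug doses (not always all listed) in √10 steps. Nuclei were counted on 4× images after 5 days. Relative viability is the ratio of treated-well to vehicle-well nuclei counts, with each value a median of duplicate plates.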

[2] = system: HCC-366
Outline: as §1

[3] = system: NCI-H2126
Outline: as §1

[4] = system: A-427
Outline: as §1

[5] = system: NCI-H1734
Outline: as §1

[6] = system: NCI-H2023
Outline: as §1

[7] = system: NCI-H2009
Outline: as §1

[8] = system: NCI-H1650
Outline: as §1

[9] = system: SW 1573
Outline: as §1

[10] = system: LOU-NH91
Outline: as §1

[11] = system: NCI-H441
Outline: as §1

[12] = system: HCC-44
Outline: as §1

[13] = system: NCI-H650
Outline: as §1

[14] = system: RERF-LC-KJ
Outline: as §1

[15] = system: NCI-H460
Outline: as §1

[16] = system: HARA
Outline: as §1

[17] = system: ChaGo-K-1
Outline: as §1

[18] = system: HCC-78
Outline: as §1

[19] = system: COR-L23
Outline: as §1

[20] = system: LCLC-97TM1
Outline: as §1

[21] = system: LCLC-103H
Outline: as §1

[22] = system: NCI-H1993
Outline: as §1

[23] = system: 201T
Outline: as §1

Cc1cnc(-c2cnc(NCCNc3ccc(C#N)cn3)nc2-c2ccc(Cl)cc2Cl)[nH]1 + CS(=O)(=O)N1CCN(Cc2cc3nc(-c4cccc5[nH]ncc45)nc(N4CCOCC4)c3s2)CC1 [Pictilisib] (partner 1 µM)
relative viability ([1]; first compound 0.08 µM): 0.681
relative viability ([1]; first compound 0.253 µM): 0.669
relative viability ([1]; first compound 0.8 µM): 0.746
relative viability ([1]; first compound 2.53 µM): 0.739
relative viability ([2]; first compound 0.08 µM): 0.148
relative viability ([2]; first compound 0.253 µM): 0.128
relative viability ([2]; first compound 0.8 µM): 0.119
relative viability ([2]; first compound 2.53 µM): 0.132
relative viability ([3]; first compound 0.08 µM): 0.512
relative viability ([3]; first compound 0.253 µM): 0.468
relative viability ([3]; first compound 0.8 µM): 0.494
relative viability ([3]; first compound 2.53 µM): 0.559
relative viability ([4]; first compound 0.08 µM): 0.758
relative viability ([4]; first compound 0.253 µM): 0.705
relative viability ([4]; first compound 0.8 µM): 0.696
relative viability ([4]; first compound 2.53 µM): 0.619
relative viability ([5]; first compound 0.08 µM): 0.548
relative viability ([5]; first compound 0.253 µM): 0.43
relative viability ([5]; first compound 0.8 µM): 0.432
relative viability ([5]; first compound 2.53 µM): 0.522
relative viability ([6]; first compound 0.08 µM): 0.334
relative viability ([6]; first compound 0.253 µM): 0.271
relative viability ([6]; first compound 0.8 µM): 0.307
relative viability ([6]; first compound 2.53 µM): 0.813
relative viability ([7]; first compound 0.08 µM): 0.877
relative viability ([7]; first compound 0.253 µM): 0.81
relative viability ([7]; first compound 0.8 µM): 0.814
relative viability ([7]; first compound 2.53 µM): 0.732
relative viability ([8]; first compound 0.08 µM): 0.682
relative viability ([8]; first compound 0.253 µM): 0.595
relative viability ([8]; first compound 0.8 µM): 0.518
relative viability ([8]; first compound 2.53 µM): 0.597
relative viability ([9]; first compound 0.08 µM): 0.487
relative viability ([9]; first compound 0.253 µM): 0.492
relative viability ([9]; first compound 0.8 µM): 0.552
relative viability ([9]; first compound 2.53 µM): 0.327
relative viability ([10]; first compound 0.08 µM): 0.532
relative viability ([10]; first compound 0.253 µM): 0.531
relative viability ([10]; first compound 0.8 µM): 0.504
relative viability ([10]; first compound 2.53 µM): 0.564
relative viability ([11]; first compound 0.08 µM): 0.486
relative viability ([11]; first compound 0.253 µM): 0.376
relative viability ([11]; first compound 0.8 µM): 0.428
relative viability ([11]; first compound 2.53 µM): 0.553
relative viability ([12]; first compound 0.08 µM): 0.706
relative viability ([12]; first compound 0.253 µM): 0.578
relative viability ([12]; first compound 0.8 µM): 0.715
relative viability ([12]; first compound 2.53 µM): 0.938
relative viability ([13]; first compound 0.08 µM): 0.936
relative viability ([13]; first compound 0.253 µM): 1.03
relative viability ([13]; first compound 0.8 µM): 0.916
relative viability ([13]; first compound 2.53 µM): 0.873
relative viability ([14]; first compound 0.08 µM): 0.662
relative viability ([14]; first compound 0.253 µM): 0.496
relative viability ([14]; first compound 0.8 µM): 0.497
relative viability ([14]; first compound 2.53 µM): 0.548
relative viability ([15]; first compound 0.08 µM): 0.243
relative viability ([15]; first compound 0.253 µM): 0.378
relative viability ([15]; first compound 0.8 µM): 0.318
relative viability ([15]; first compound 2.53 µM): 0.504
relative viability ([16]; first compound 0.08 µM): 0.398
relative viability ([16]; first compound 0.253 µM): 0.414
relative viability ([16]; first compound 0.8 µM): 0.433
relative viability ([16]; first compound 2.53 µM): 0.454
relative viability ([17]; first compound 0.08 µM): 0.612
relative viability ([17]; first compound 0.253 µM): 0.828
relative viability ([17]; first compound 0.8 µM): 0.375
relative viability ([17]; first compound 2.53 µM): 0.623
relative viability ([18]; first compound 0.08 µM): 0.198
relative viability ([18]; first compound 0.253 µM): 0.253
relative viability ([18]; first compound 0.8 µM): 0.233
relative viability ([18]; first compound 2.53 µM): 0.308
relative viability ([19]; first compound 0.08 µM): 0.901
relative viability ([19]; first compound 0.253 µM): 0.683
relative viability ([19]; first compound 0.8 µM): 0.944
relative viability ([19]; first compound 2.53 µM): 0.755
relative viability ([20]; first compound 0.08 µM): 0.231
relative viability ([20]; first compound 0.253 µM): 0.234
relative viability ([20]; first compound 0.8 µM): 0.158
relative viability ([20]; first compound 2.53 µM): 0.172
relative viability ([21]; first compound 0.08 µM): 0.675
relative viability ([21]; first compound 0.253 µM): 0.542
relative viability ([21]; first compound 0.8 µM): 0.696
relative viability ([21]; first compound 2.53 µM): 0.619
relative viability ([22]; first compound 0.08 µM): 0.92
relative viability ([22]; first compound 0.253 µM): 0.911
relative viability ([22]; first compound 0.8 µM): 0.87
relative viability ([22]; first compound 2.53 µM): 0.806
relative viability ([23]; first compound 0.08 µM): 0.713
relative viability ([23]; first compound 0.253 µM): 0.629
relative viability ([23]; first compound 0.8 µM): 0.724
relative viability ([23]; first compound 2.53 µM): 0.723

Reference: the supplement of paper PMC10307832
